Laboratory results reported in ChEMBL document CHEMBL1140599, “DAT/SERT selectivity of flexible GBR 12909 analogs modeled using 3D-QSAR methods” (Bioorg Med Chem, 2007).

How the values were obtained:
Rattus norvegicus = organism: Rattus norvegicus; assay: Selectivity for rat DAT over rat SERT
[1] = molecular target: Sodium-dependent serotonin transporter (Rattus norvegicus, UniProt P31652); assay: Displacement of [125I]RTI55 from SERT in rat brain synaptosomes; format: subcellular
[2] = molecular target: Sodium-dependent dopamine transporter (Rattus norvegicus, UniProt P23977); assay: Displacement of [125I]RTI55 from DAT in rat brain synaptosomes; format: subcellular
Sequence of Sodium-dependent dopamine transporter (P23977 whole entry): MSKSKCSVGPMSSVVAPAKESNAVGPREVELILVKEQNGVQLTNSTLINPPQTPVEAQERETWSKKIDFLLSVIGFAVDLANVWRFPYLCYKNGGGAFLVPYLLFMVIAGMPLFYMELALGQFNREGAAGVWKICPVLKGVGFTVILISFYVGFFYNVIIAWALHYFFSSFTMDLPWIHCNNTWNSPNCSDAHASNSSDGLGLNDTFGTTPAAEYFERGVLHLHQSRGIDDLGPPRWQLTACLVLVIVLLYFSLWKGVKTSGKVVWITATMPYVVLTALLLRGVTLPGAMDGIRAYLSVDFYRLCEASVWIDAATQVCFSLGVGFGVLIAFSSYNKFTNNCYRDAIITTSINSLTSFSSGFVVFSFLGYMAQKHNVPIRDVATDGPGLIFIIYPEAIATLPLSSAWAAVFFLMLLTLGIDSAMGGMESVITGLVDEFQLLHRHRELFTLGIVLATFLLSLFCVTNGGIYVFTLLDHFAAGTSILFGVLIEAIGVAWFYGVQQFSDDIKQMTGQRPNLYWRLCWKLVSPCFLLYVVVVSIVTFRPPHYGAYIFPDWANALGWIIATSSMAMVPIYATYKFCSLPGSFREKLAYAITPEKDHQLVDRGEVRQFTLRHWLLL

Sequence of Sodium-dependent serotonin transporter (P31652 whole entry): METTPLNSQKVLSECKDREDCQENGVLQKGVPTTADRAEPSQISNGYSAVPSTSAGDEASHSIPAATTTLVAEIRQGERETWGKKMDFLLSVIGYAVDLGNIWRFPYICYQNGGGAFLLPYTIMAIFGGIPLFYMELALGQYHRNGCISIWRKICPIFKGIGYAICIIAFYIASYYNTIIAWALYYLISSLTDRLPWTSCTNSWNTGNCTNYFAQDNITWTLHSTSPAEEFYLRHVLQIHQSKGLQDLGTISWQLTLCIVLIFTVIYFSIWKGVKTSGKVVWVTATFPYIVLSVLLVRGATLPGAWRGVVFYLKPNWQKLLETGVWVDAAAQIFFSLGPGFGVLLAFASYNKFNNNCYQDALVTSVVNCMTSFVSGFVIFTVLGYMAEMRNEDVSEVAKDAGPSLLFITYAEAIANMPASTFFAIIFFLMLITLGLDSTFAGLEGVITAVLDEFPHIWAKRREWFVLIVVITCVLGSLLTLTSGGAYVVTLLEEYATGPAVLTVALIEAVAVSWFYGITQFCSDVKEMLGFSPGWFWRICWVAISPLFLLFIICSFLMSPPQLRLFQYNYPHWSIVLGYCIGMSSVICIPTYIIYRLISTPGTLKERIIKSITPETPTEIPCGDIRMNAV

| SMILES | Ratio pKi (Rattus norvegicus) | Ki [1] | Ki [2] |
| --- | --- | --- | --- |
| Fc1ccc(C(OCCN2CCN(CC3=Cc4ccccc4CC3)CC2)c2ccc(F)cc2)cc1 | 1.61 | – | – |
| Fc1ccc(C(OCCN2CCN(CC#Cc3ccccc3)CC2)c2ccc(F)cc2)cc1 | 1.12 | 266 nM | 20 nM |
| Fc1ccc(C(OCCC2CCN(Cc3ccc(Br)cc3)CC2)c2ccc(F)cc2)cc1 | 2.26 | – | – |
| COc1ccccc1CN1CCC(CCOC(c2ccc(F)cc2)c2ccc(F)cc2)CC1 | 0.6 | – | – |
| O=C1CCCCC1CN1CCN(CCOC(c2ccc(F)cc2)c2ccc(F)cc2)CC1 (racemic) | 1.29 | 1690 nM | 87 nM |
| Fc1ccc(C(OCCC2CCN(C[C@@H]3C[C@H]3c3ccccc3)CC2)c2ccc(F)cc2)cc1 | 1.44 | 22 nM | 0.8 nM |
| Fc1ccc(C(OCCC2CCN(Cc3ccc(Cl)cc3)CC2)c2ccc(F)cc2)cc1 | 2.3 | – | – |
| COc1ccc2c(c1)CCC(CN1CCN(CCOC(c3ccc(F)cc3)c3ccc(F)cc3)CC1)=C2 | 0.03 | – | 53 nM |
| Fc1ccc(C(OCCC2CCN(C[C@@H]3Cc4ccccc4CN3)CC2)c2ccc(F)cc2)cc1 | 1 | 48.1 nM | 4.77 nM |
| Fc1ccc(C(OCCC2CCN(Cc3ccccc3)CC2)c2ccc(F)cc2)cc1 | 1.24 | – | – |
| COc1cccc(CN2CCC(CCOC(c3ccc(F)cc3)c3ccc(F)cc3)CC2)c1 | 1.08 | – | – |
| Fc1ccc(C(OCCC2CCN(Cc3cc4ccccc4s3)CC2)c2ccc(F)cc2)cc1 | 2.18 | 246 nM | 1.61 nM |
| Fc1ccc(C(OCCN2CCN(Cc3ccc4ccccc4c3)CC2)c2ccc(F)cc2)cc1 | 1.59 | 312 nM | 8 nM |
| Fc1ccc(C(OCCN2CCN(Cc3ccc4ncccc4c3)CC2)c2ccc(F)cc2)cc1 | 0.95 | 551 nM | 61.8 nM |
| O[C@H]1c2ccccc2CC[C@@H]1CN1CCN(CCOC(c2ccc(F)cc2)c2ccc(F)cc2)CC1 | 0.25 | 32 nM | 18 nM |
| O[C@H]1c2ccccc2CC[C@H]1CN1CCN(CCOC(c2ccc(F)cc2)c2ccc(F)cc2)CC1 | 1.36 | – | – |
| Cc1ccc(CN2CCC(CCOC(c3ccc(F)cc3)c3ccc(F)cc3)CC2)cc1 | 1.62 | – | – |
| O=[N+]([O-])c1ccc(CN2CCC(CCOC(c3ccc(F)cc3)c3ccc(F)cc3)CC2)cc1 | 2.51 | – | – |
| Fc1ccc(C(OCCC2CCN(Cc3cccc4ccccc34)CC2)c2ccc(F)cc2)cc1 | 1.36 | – | – |
| O=C1c2ccccc2CCC1CN1CCN(CCOC(c2ccc(F)cc2)c2ccc(F)cc2)CC1 (racemic) | 0.29 | – | – |
| Fc1ccc(C(OCCC2CCN(Cc3ccc(I)cc3)CC2)c2ccc(F)cc2)cc1 | 1.99 | – | – |
| Fc1ccc(C(OCCN2CCN(Cc3cc4ccccc4[nH]3)CC2)c2ccc(F)cc2)cc1 | 2.23 | 119 nM | 0.7 nM |
| C=CCN1CCN(CCOC(c2ccc(F)cc2)c2ccc(F)cc2)CC1 | 1.41 | – | – |

| SMILES | Ratio pKi (Rattus norvegicus) | Ki [1] | Ki [2] |
| --- | --- | --- | --- |
| COc1ccc(CN2CCC(CCOC(c3ccc(F)cc3)c3ccc(F)cc3)CC2)cc1 | 1.53 | – | – |
| Fc1ccc(C(OCCN2CCN(Cc3cc4ccccc4s3)CC2)c2ccc(F)cc2)cc1 | 2.08 | 495 nM | 4.1 nM |
| Fc1ccc(C(OCCN2CCN(Cc3cc4ccccc4o3)CC2)c2ccc(F)cc2)cc1 | 1.65 | 286 nM | 6.4 nM |
| Fc1ccc(C(OCCN2CCN(Cc3ccc4ccccc4n3)CC2)c2ccc(F)cc2)cc1 | -0.04 | 51 nM | 56 nM |
| N#Cc1ccc(CN2CCC(CCOC(c3ccc(F)cc3)c3ccc(F)cc3)CC2)cc1 | 2.7 | – | – |
| COc1ccc2c(c1)CCC(CN1CCN(CCOC(c3ccc(F)cc3)c3ccc(F)cc3)CC1)C2=O (racemic) | -0.87 | – | – |
| CCN1CCN(CCOC(c2ccc(F)cc2)c2ccc(F)cc2)CC1 | 1.79 | – | – |
| Fc1ccc(C(OCCC2CCN(C[C@H]3C[C@@H]3c3ccccc3)CC2)c2ccc(F)cc2)cc1 | 2.02 | 136 nM | 1.3 nM |
| Fc1ccc(C(OCCN2CCN(CCCCl)CC2)c2ccc(F)cc2)cc1 | 0.91 | 338 nM | 42 nM |
| Fc1ccc(C(OCCC2CCN(Cc3cc4ccccc4[nH]3)CC2)c2ccc(F)cc2)cc1 | 2.08 | 88 nM | 0.73 nM |
| CCCN1CCN(CCOC(c2ccc(F)cc2)c2ccc(F)cc2)CC1 | 1.35 | – | – |
| Fc1ccc(C(OCCN2CCN(Cc3cccc4ccccc34)CC2)c2ccc(F)cc2)cc1 | 0.89 | 243 nM | 31 nM |
| Fc1ccc(C(OCCN2CCN(Cc3cnc4ccccc4c3)CC2)c2ccc(F)cc2)cc1 | 1.48 | 485 nM | 16.1 nM |
| Fc1ccc(C(OCCC2CCN(C[C@H]3Cc4ccccc4CN3)CC2)c2ccc(F)cc2)cc1 | 0.21 | 15.2 nM | 9.32 nM |
| Fc1ccc(CN2CCC(CCOC(c3ccc(F)cc3)c3ccc(F)cc3)CC2)cc1 | 2.03 | – | – |
| Fc1ccc(C(OCCC2CCN(CC#Cc3ccccc3)CC2)c2ccc(F)cc2)cc1 | 1.49 | 164 nM | 5.3 nM |
| O=C1CCCC1CN1CCN(CCOC(c2ccc(F)cc2)c2ccc(F)cc2)CC1 (racemic) | 1.06 | – | – |
| Fc1ccc(C(OCCC2CCN(Cc3ccc4ccccc4c3)CC2)c2ccc(F)cc2)cc1 | 2.51 | – | 0.71 nM |
| Fc1ccc(C(OCCC2CCN(Cc3ccc(C(F)(F)F)cc3)CC2)c2ccc(F)cc2)cc1 | 2.6 | – | – |
| Fc1ccc(C(OCCN2CCN(CC34CC5CC(CC(C5)C3)C4)CC2)c2ccc(F)cc2)cc1 | 0.78 | 598 nM | 100 nM |
| COc1ccc2c(c1)CC[C@@H](CN1CCN(CCOC(c3ccc(F)cc3)c3ccc(F)cc3)CC1)[C@H]2O | -0.67 | – | 14 nM |
| O=C1CCCCCC1CN1CCN(CCOC(c2ccc(F)cc2)c2ccc(F)cc2)CC1 (racemic) | 1.03 | – | – |
| Fc1ccc(C(OCCC2CCN(Cc3cc4ccccc4o3)CC2)c2ccc(F)cc2)cc1 | 1.93 | 85 nM | 1.01 nM |
